Data taken from patent US9174964B2, “AMPK-activating piperidinyloxy-substituted 2,3-dihydro-1H-indene-1-amine compounds and pharmaceutical compositions including the same” (Rigel Pharmaceuticals, Inc., priority 2007, dated 2015).
Structures can show the parent of a compound that is named as a salt.

target: AMPK; assay: AMPK activation, enzyme-linked immunosorbent assay; format: biochemical; details: Table 3, AMPK activation, ELISA
Description: Compounds 1-50 of Table 1 were assayed for their ability to activate AMPK using an enzyme-linked immunosorbent assay.
Compounds 51-60 of Table 1 were assayed for their ability to activate AMPK using an enzyme-linked immunosorbent assay.
Compounds 61-131 of Table 1 were assayed for their ability to activate AMPK using an enzyme-linked immunosorbent assay.
Compounds 137-141 and 143-155 of Table 1 were assayed for their ability to activate AMPK using an enzyme-linked immunosorbent assay.
Compounds 156-160 of Table 1 were assayed for their ability to activate AMPK using an enzyme-linked immunosorbent assay.

Row | Compound | EC50
1 | O=C(c1ccc(F)cc1)N1CCC(NS(=O)(=O)c2ccc(OC3CCN(c4ccc(C(F)(F)F)cc4)CC3)nc2)CC1 [Compound 60, N-(1-(4-fluorobenzoyl)piperidin-4-yl)-6-(1-(4-(trifluoromethyl)phenyl)piperidin-4-yloxy)pyridine-3-sulfonamide] | > 50000 nM

same assay, conditions: Table 4, AMPK activation, ELISA

Row | Compound | EC50
2 | Cc1c(C(=O)NC2CCN(C(=O)OC(C)(C)C)CC2)oc2cc(OC3CCN(c4ccc(C(F)(F)F)cc4)CC3)ccc12 [Compound 61, tert-butyl 4-(3-methyl-6-(1-(4-(trifluoromethyl)phenyl)piperidin-4-yloxy)benzofuran-2-carboxamido)piperidine-1-carboxylate] | 100 to 500 nM
3 | Cc1c(C(=O)NC2CCNCC2)oc2cc(OC3CCN(c4ccc(C(F)(F)F)cc4)CC3)ccc12 [Compound 62, 3-methyl-N-(piperidin-4-yl)-6-(1-(4-(trifluoromethyl)phenyl)piperidin-4-yloxy)benzofuran-2-carboxamide] | 10000 to 50000 nM
4 | O=C(NC1CCN(Cc2ccccc2)CC1)c1cc2cc(OC3CCN(Cc4ccc(Cl)cc4)CC3)ccc2o1 [Compound 72, N-(1-benzylpiperidin-4-yl)-5-(1-(4-chlorobenzyl)piperidin-4-yloxy)benzofuran-2-carboxamide] | 100 to 500 nM
5 | O=C(NC1CCN(Cc2ccccc2)CC1)c1cc2cc(OC3CCN(Cc4cccc(C(F)(F)F)c4)CC3)ccc2o1 [Compound 73, N-(1-benzylpiperidin-4-yl)-5-(1-(3-(trifluoromethyl)benzyl)piperidin-4-yloxy)benzofuran-2-carboxamide] | 500 to 1000 nM
6 | O=C(NC1CCN(Cc2ccccc2)CC1)c1cc2cc(OC3CCN(Cc4ccc(F)c(F)c4)CC3)ccc2o1 [Compound 74, N-(1-benzylpiperidin-4-yl)-5-(1-(3,4-difluorobenzyl)piperidin-4-yloxy)benzofuran-2-carboxamide] | 100 to 500 nM
7 | O=C(NC1CCN(Cc2ccncc2)CC1)c1cc2cc(OC3CCN(c4ccc(C(F)(F)F)cc4)CC3)ccc2o1 [Compound 76, N-(1-(pyridin-4-ylmethyl)piperidin-4-yl)-5-(1-(4-(trifluoromethyl)phenyl)piperidin-4-yloxy)benzofuran-2-carboxamide] | 100 to 500 nM
8 | O=C(NC1CCN(Cc2ccncc2)CC1)c1cc2cc(OC3CCN(Cc4ccc(Cl)cc4)CC3)ccc2o1 [Compound 77, 5-(1-(4-chlorobenzyl)piperidin-4-yloxy)-N-(1-(pyridin-4-ylmethyl)piperidin-4-yl)benzofuran-2-carboxamide] | 100 to 500 nM
9 | N#Cc1ccc(CN2CCC(Oc3ccc4oc(C(=O)NC5CCN(Cc6ccncc6)CC5)cc4c3)CC2)cc1 [Compound 79, 5-(1-(4-cyanobenzyl)piperidin-4-yloxy)-N-(1-(pyridin-4-ylmethyl)piperidin-4-yl)benzofuran-2-carboxamide] | 100 to 500 nM
10 | O=C(NC1CCN(Cc2ccccc2)CC1)c1cc2cc(OC3CCN(c4ccc(OC(F)(F)F)cc4)CC3)ccc2o1 [Compound 80, N-(1-benzylpiperidin-4-yl)-5-(1-(4-(trifluoromethoxy)phenyl)piperidin-4-yloxy)benzofuran-2-carboxamide trifluoroacetate salt] | < 100 nM
11 | CC(C)(C)OC(=O)N1CCC(NC(=O)c2cc3ccc(OC4CCN(c5ccc(OC(F)(F)F)cc5)CC4)cc3o2)CC1 [Compound 81, tert-butyl 4-(6-(1-(4-(trifluoromethoxy)phenyl)piperidin-4-yloxy)benzofuran-2-carboxamido)piperidine-1-carboxylate] | 100 to 500 nM
12 | CC(C)(C)OC(=O)N1CCC(NC(=O)c2cc3ccc(OC4CCN(c5ccc(C(F)(F)F)cc5)CC4)cc3o2)CC1 [Compound 82, tert-butyl 4-(6-(1-(4-(trifluoromethyl)phenyl)piperidin-4-yloxy)benzofuran-2-carboxamido)piperidine-1-carboxylate] | 100 to 500 nM
13 | O=C(NC1CCNCC1)c1cc2ccc(OC3CCN(c4ccc(OC(F)(F)F)cc4)CC3)cc2o1 [Compound 83, N-(piperidin-4-yl)-6-(1-(4-(trifluoromethoxy)phenyl)piperidin-4-yloxy)benzofuran-2-carboxamide hydrochloride] | 100 to 500 nM
14 | O=C(NC1CCNCC1)c1cc2ccc(OC3CCN(c4ccc(C(F)(F)F)cc4)CC3)cc2o1 [Compound 84, N-(piperidin-4-yl)-6-(1-(4-(trifluoromethyl)phenyl)piperidin-4-yloxy)benzofuran-2-carboxamide hydrochloride] | 10000 to 50000 nM
15 | CC(C)(C)OC(=O)N1CCC(NC(=O)c2cc3cc(OC4CCN(c5ccc(C(F)(F)F)cc5)CC4)ccc3o2)CC1 [Compound 85, tert-butyl 4-(5-(1-(4-(trifluoromethyl)phenyl)piperidin-4-yloxy)benzofuran-2-carboxamido)piperidine-1-carboxylate] | 500 to 1000 nM
16 | O=C(NC1CCNCC1)c1cc2cc(OC3CCN(c4ccc(C(F)(F)F)cc4)CC3)ccc2o1 [Compound 86, N-(piperidin-4-yl)-5-(1-(4-(trifluoromethyl)phenyl)piperidin-4-yloxy)benzofuran-2-carboxamide hydrochloride] | > 50000 nM
17 | O=C(NC1CCN(Cc2ccncc2)CC1)c1cc2ccc(OC3CCN(c4ccc(C(F)(F)F)cc4)CC3)cc2o1 [Compound 87, N-(1-(pyridin-4-ylmethyl)piperidin-4-yl)-6-(1-(4-(trifluoromethyl)phenyl)piperidin-4-yloxy)benzofuran-2-carboxamide] | < 100 nM
18 | O=C(NC1CCN(Cc2ccncc2)CC1)c1cc2ccc(OC3CCN(c4ccc(OC(F)(F)F)cc4)CC3)cc2o1 [Compound 88, N-(1-(pyridin-4-ylmethyl)piperidin-4-yl)-6-(1-(4-(trifluoromethoxy)phenyl)piperidin-4-yloxy)benzofuran-2-carboxamide] | < 100 nM
19 | N#Cc1ccc(CN2CCC(NC(=O)c3cc4ccc(OC5CCN(c6ccc(OC(F)(F)F)cc6)CC5)cc4o3)CC2)cc1 [Compound 89, N-(1-(4-cyanobenzyl)piperidin-4-yl)-6-(1-(4-(trifluoromethoxy)phenyl)piperidin-4-yloxy)benzofuran-2-carboxamide] | < 100 nM

Next, values leading:

Row | EC50 | Compound
20 | < 100 nM | Cc1c(C(=O)NC2CCN(Cc3ccc(F)cc3)CC2)oc2cc(OC3CCN(c4ccc(C(F)(F)F)cc4)CC3)ccc12 [Compound 63, N-(1-(4-fluorobenzyl)piperidin-4-yl)-3-methyl-6-(1-(4-(trifluoromethyl)phenyl)piperidin-4-yloxy)benzofuran-2-carboxamide]
21 | < 100 nM | Cc1c(C(=O)NC2CCN(Cc3ccc(C#N)cc3)CC2)oc2cc(OC3CCN(c4ccc(C(F)(F)F)cc4)CC3)ccc12 [Compound 64, N-(1-(4-cyanobenzyl)piperidin-4-yl)-3-methyl-6-(1-(4-(trifluoromethyl)phenyl)piperidin-4-yloxy)benzofuran-2-carboxamide]
22 | < 100 nM | Cc1c(C(=O)NC2CCN(Cc3ccncc3)CC2)oc2cc(OC3CCN(c4ccc(C(F)(F)F)cc4)CC3)ccc12 [Compound 65, 3-methyl-N-(1-(pyridin-4-ylmethyl)piperidin-4-yl)-6-(1-(4-(trifluoromethyl)phenyl)piperidin-4-yloxy)benzofuran-2-carboxamide]
23 | < 100 nM | Cc1c(C(=O)NC2CCN(Cc3cccc(C#N)c3)CC2)oc2cc(OC3CCN(c4ccc(C(F)(F)F)cc4)CC3)ccc12 [Compound 66, N-(1-(3-cyanobenzyl)piperidin-4-yl)-3-methyl-6-(1-(4-(trifluoromethyl)phenyl)piperidin-4-yloxy)benzofuran-2-carboxamide]
24 | < 100 nM | Cc1c(C(=O)NC2CCN(Cc3ccccc3C#N)CC2)oc2cc(OC3CCN(c4ccc(C(F)(F)F)cc4)CC3)ccc12 [Compound 67, N-(1-(2-cyanobenzyl)piperidin-4-yl)-3-methyl-6-(1-(4-(trifluoromethyl)phenyl)piperidin-4-yloxy)benzofuran-2-carboxamide]
25 | < 100 nM | Cc1c(C(=O)NC2CCN(Cc3ccccn3)CC2)oc2cc(OC3CCN(c4ccc(C(F)(F)F)cc4)CC3)ccc12 [Compound 68, 3-methyl-N-(1-(pyridin-2-ylmethyl)piperidin-4-yl)-6-(1-(4-(trifluoromethyl)phenyl)piperidin-4-yloxy)benzofuran-2-carboxamide]
26 | < 100 nM | Cc1c(C(=O)NC2CCN(Cc3cccnc3)CC2)oc2cc(OC3CCN(c4ccc(C(F)(F)F)cc4)CC3)ccc12 [Compound 69, 3-methyl-N-(1-(pyridin-3-ylmethyl)piperidin-4-yl)-6-(1-(4-(trifluoromethyl)phenyl)piperidin-4-yloxy)benzofuran-2-carboxamide]
27 | < 100 nM | N#Cc1ccc(CN2CCC(Oc3ccc4oc(C(=O)NC5CCN(Cc6ccccc6)CC5)cc4c3)CC2)cc1 [Compound 70, N-(1-benzylpiperidin-4-yl)-5-(1-(4-cyanobenzyl)piperidin-4-yloxy)benzofuran-2-carboxamide]
28 | < 100 nM | N#Cc1ccc(N2CCC(Oc3ccc4oc(C(=O)NC5CCN(Cc6ccccc6)CC5)cc4c3)CC2)cc1 [Compound 71, N-(1-benzylpiperidin-4-yl)-5-(1-(4-cyanophenyl)piperidin-4-yloxy)benzofuran-2-carboxamide formate salt]
29 | < 100 nM | O=C(NC1CCN(Cc2ccccc2)CC1)c1cc2cc(OC3CCN(c4ccc(C(F)(F)F)cc4)CC3)ccc2o1 [Compound 75, N-(1-benzylpiperidin-4-yl)-5-(1-(4-(trifluoromethyl)phenyl)piperidin-4-yloxy)benzofuran-2-carboxamide]
30 | < 100 nM | O=C(NC1CCN(Cc2ccncc2)CC1)c1cc2cc(OC3CCN(c4ccc(OC(F)(F)F)cc4)CC3)ccc2o1 [Compound 78, N-(1-(pyridin-4-ylmethyl)piperidin-4-yl)-5-(1-(4-(trifluoromethoxy)phenyl)piperidin-4-yloxy)benzofuran-2-carboxamide trifluoroacetate salt]
